In patent publication US20210392895A1, “NOVEL OXADIAZOLES” (PI INDUSTRIES LIMITED, priority 2018, published 2021):
Counter-ions that a name gives are not always drawn.

Legend:
Botrytis cinerea = Botrytis cinerea (gray mold) in vitro test, radial growth on Potato Dextrose Agar; assay type: cell-based; conditions: 168 h, compared to the untreated check, radial growth after seven days, read-out: control
Fusarium culmorum = Fusarium culmorum (foot rot of cereals) in vitro test, radial growth on Potato Dextrose Agar; assay type: cell-based; conditions: 168 h, 25° C., seven days, read-out: control compared to the untreated check (radial growth)
Pyricularia oryzae = assay: microbe, parasite or virus in culture; assay type: cell-based; conditions: 168 h, read-out: control
Alternaria solani = Alternaria solani (early blight of tomato/potato) in vitro test, radial growth on Potato Dextrose Agar; assay type: cell-based; conditions: 168 h, compared to the untreated check, radial growth after seven days, read-out: control
Colletotrichum capsici = Colletotrichum capsici (anthracnose) in vitro test, radial growth on Potato Dextrose Agar; conditions: Colletotrichum truncatum, 168 h, read-out: control
Procedure: Compounds were dissolved in 0.3% DMSO and then added to Potato Dextrose Agar medium just prior to dispensing it into petri dishes. 5 mL medium with compound in the desired concentration was dispensed into 60 mm sterile petri-plates. After solidification, each plate was seeded with a 5 mm size mycelial disc taken form the periphery of an actively growing virulent culture plate. Plates were incubated in growth chambers at 25° C. temperature and 60% relative humidity for seven days and radial growth was measured.

Rhizoctonia solani = Rhizoctonia solani (rice sheath blight/potato black scurf) in vitro test, radial growth on Potato Dextrose Agar; assay type: cell-based; conditions: 168 h, compared to the untreated check, radial growth after seven days, read-out: control
Corynespora cassicola = Corynespora cassicola (leaf spot of tomato) in vitro test, radial growth on Potato Dextrose Agar; assay type: cell-based; conditions: 168 h, compared to the untreated check, radial growth after seven days, read-out: control
Phakopsora pachyrhizi = Phakopsora pachyrhizi test in soybean (greenhouse, preventive activity, disease severity rating); assay type: in vivo; conditions: preventive spray on soybean, compared to the untreated check
Outline: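 Greenhouse-raised young soybean plants sprayed with compound at stated rates, then inoculated one day later with 2.1×10^6 P. pachyrhizi spores and held at 25° C, 90% RH. Disease severity (0-100%) rated visually 3, 7, 10 and 15 days after application; % control calculated versus untreated plants.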

CC(=O)N1CC[C@H](Oc2ccc(-c3noc(C(F)(F)F)n3)cc2)C1 [Compound 2, (S)-1-(3-(4-(5-(trifluoromethyl)-1,2,4-oxadiazol-3-yl)phenoxy)pyrrolidin-1-yl)ethan-1-one]
> 70%: inhibition of growth at 300 ppm (Botrytis cinerea) | inhibition of growth at 300 ppm (Fusarium culmorum) | inhibition of growth at 300 ppm (Pyricularia oryzae) | inhibition of growth at 300 ppm (Alternaria solani) | inhibition of growth at 300 ppm (Colletotrichum capsici) | inhibition of growth at 300 ppm (Rhizoctonia solani) | inhibition of growth at 300 ppm (Corynespora cassicola) | pest or weed control at 500 ppm (Phakopsora pachyrhizi)

O=C(c1cccnc1)N1CC[C@H](Oc2ccc(-c3noc(C(F)(F)F)n3)cc2)C1 [Compound 12, (S)-pyridin-3-yl(3-(4-(5-(trifluoromethyl)-1,2,4-oxadiazol-3-yl)phenoxy)pyrrolidin-1-yl)methanone]
> 70%: inhibition of growth at 300 ppm (Fusarium culmorum) | inhibition of growth at 300 ppm (Pyricularia oryzae) | inhibition of growth at 300 ppm (Alternaria solani) | inhibition of growth at 300 ppm (Colletotrichum capsici) | inhibition of growth at 300 ppm (Rhizoctonia solani) | pest or weed control at 500 ppm (Phakopsora pachyrhizi)

O=C(c1ccncc1)N1CC[C@H](Oc2ccc(-c3noc(C(F)(F)F)n3)cc2)C1 [Compound 13, (S)-pyridin-4-yl(3-(4-(5-(trifluoromethyl)-1,2,4-oxadiazol-3-yl)phenoxy)pyrrolidin-1-yl)methanone]
> 70%: inhibition of growth at 300 ppm (Botrytis cinerea) | inhibition of growth at 300 ppm (Fusarium culmorum) | inhibition of growth at 300 ppm (Pyricularia oryzae) | inhibition of growth at 300 ppm (Alternaria solani) | inhibition of growth at 300 ppm (Colletotrichum capsici) | inhibition of growth at 300 ppm (Rhizoctonia solani) | pest or weed control at 500 ppm (Phakopsora pachyrhizi)

O=C(Cc1ccccn1)N1CC[C@H](Oc2ccc(-c3noc(C(F)(F)F)n3)cc2)C1 [Compound 55, (S)-2-(pyridin-2-yl)-1-(3-(4-(5-(trifluoromethyl)-1,2,4-oxadiazol-3-yl)phenoxy)pyrrolidin-1-yl)ethan-1-one]
> 70%: inhibition of growth at 300 ppm (Botrytis cinerea) | inhibition of growth at 300 ppm (Fusarium culmorum) | inhibition of growth at 300 ppm (Pyricularia oryzae) | inhibition of growth at 300 ppm (Colletotrichum capsici) | inhibition of growth at 300 ppm (Rhizoctonia solani) | inhibition of growth at 300 ppm (Corynespora cassicola)

O=C(c1ccncc1)N1CC[C@H](Oc2ccc(-c3noc(C(F)(F)F)n3)cc2F)C1 [Compound 59, (S)-(3-(2-fluoro-4-(5-(trifluoromethyl)-1,2,4-oxadiazol-3-yl)phenoxy)pyrrolidin-1-yl)(pyridin-4-yl)methanone]
> 70%: inhibition of growth at 300 ppm (Botrytis cinerea) | inhibition of growth at 300 ppm (Pyricularia oryzae) | inhibition of growth at 300 ppm (Alternaria solani) | inhibition of growth at 300 ppm (Colletotrichum capsici) | inhibition of growth at 300 ppm (Rhizoctonia solani) | pest or weed control at 500 ppm (Phakopsora pachyrhizi)

O=C(c1ccncc1)N1CC[C@H](Oc2ccc(-c3noc(C(F)(F)F)n3)c(F)c2)C1 [Compound 66, (S)-(3-(3-fluoro-4-(5-(trifluoromethyl)-1,2,4-oxadiazol-3-yl)phenoxy)pyrrolidin-1-yl)(pyridin-4-yl)methanone]
> 70%: inhibition of growth at 300 ppm (Botrytis cinerea) | inhibition of growth at 300 ppm (Fusarium culmorum) | inhibition of growth at 300 ppm (Pyricularia oryzae) | inhibition of growth at 300 ppm (Alternaria solani) | inhibition of growth at 300 ppm (Colletotrichum capsici) | inhibition of growth at 300 ppm (Rhizoctonia solani) | inhibition of growth at 300 ppm (Corynespora cassicola)

CC(=O)N1CC[C@H](Oc2ccc(-c3noc(C(F)(F)F)n3)c(F)c2)C1 [Compound 68, (S)-1-(3-(3-fluoro-4-(5-(trifluoromethyl)-1,2,4-oxadiazol-3-yl)phenoxy)pyrrolidin-1-yl)ethan-1-one]
> 70%: inhibition of growth at 300 ppm (Botrytis cinerea) | inhibition of growth at 300 ppm (Pyricularia oryzae) | inhibition of growth at 300 ppm (Alternaria solani) | inhibition of growth at 300 ppm (Colletotrichum capsici) | inhibition of growth at 300 ppm (Rhizoctonia solani)

CC(=O)N1CC[C@H](Oc2ccc(-c3noc(C(F)(F)F)n3)cc2F)C1 [Compound 69, (S)-1-(3-(2-fluoro-4-(5-(trifluoromethyl)-1,2,4-oxadiazol-3-yl)phenoxy)pyrrolidin-1-yl)ethan-1-one]
> 70%: inhibition of growth at 300 ppm (Botrytis cinerea) | inhibition of growth at 300 ppm (Fusarium culmorum) | inhibition of growth at 300 ppm (Pyricularia oryzae) | inhibition of growth at 300 ppm (Alternaria solani) | inhibition of growth at 300 ppm (Colletotrichum capsici) | inhibition of growth at 300 ppm (Rhizoctonia solani) | inhibition of growth at 300 ppm (Corynespora cassicola)

FC(F)(F)c1nc(-c2ccc(OC3CCNCC3)cc2)no1 [Compound 85, 3-(4-(piperidin-4-yloxy)phenyl)-5-(trifluoromethyl)-1,2,4-oxadiazole Hydrochloride]
> 70%: inhibition of growth at 300 ppm (Pyricularia oryzae) | inhibition of growth at 300 ppm (Alternaria solani) | inhibition of growth at 300 ppm (Rhizoctonia solani) | inhibition of growth at 300 ppm (Corynespora cassicola) | pest or weed control at 500 ppm (Phakopsora pachyrhizi)

CC(=O)N1CC(N(C)c2ccc(-c3noc(C(F)(F)F)n3)cc2)C1 [Compound 89, 1-(3-(methyl(4-(5-(trifluoromethyl)-1,2,4-oxadiazol-3-yl)phenyl)amino)azetidin-1-yl)ethan-1-one]
> 70%: inhibition of growth at 300 ppm (Botrytis cinerea) | inhibition of growth at 300 ppm (Fusarium culmorum) | inhibition of growth at 300 ppm (Pyricularia oryzae) | inhibition of growth at 300 ppm (Alternaria solani) | inhibition of growth at 300 ppm (Colletotrichum capsici) | inhibition of growth at 300 ppm (Rhizoctonia solani) | inhibition of growth at 300 ppm (Corynespora cassicola)

CC(=O)N1CCC(Oc2ccc(-c3noc(C(F)(F)F)n3)cc2)CC1 [Compound 95, 1-(4-(4-(5-(trifluoromethyl)-1,2,4-oxadiazol-3-yl)phenoxy)piperidin-1-yl)ethan-1-one]
> 70%: inhibition of growth at 300 ppm (Botrytis cinerea) | inhibition of growth at 300 ppm (Fusarium culmorum) | inhibition of growth at 300 ppm (Pyricularia oryzae) | inhibition of growth at 300 ppm (Alternaria solani) | inhibition of growth at 300 ppm (Colletotrichum capsici) | inhibition of growth at 300 ppm (Rhizoctonia solani) | inhibition of growth at 300 ppm (Corynespora cassicola)

FC(F)(F)c1nc(-c2ccc(O[C@H]3CCN(Cc4ccccc4)C3)cc2)no1 [Compound 137, (S)-3-(4-((1-benzylpyrrolidin-3-yl)oxy)phenyl)-5-(trifluoromethyl)-1,2,4-oxadiazole]
> 70%: inhibition of growth at 300 ppm (Pyricularia oryzae) | inhibition of growth at 300 ppm (Alternaria solani) | inhibition of growth at 300 ppm (Rhizoctonia solani) | inhibition of growth at 300 ppm (Corynespora cassicola)

FC(F)(F)c1nc(-c2ccc(S[C@@H]3CCNC3)cc2)no1 [Compound 158, (R)-3-(4-(pyrrolidin-3-ylthio)phenyl)-5-(trifluoromethyl)-1,2,4-oxadiazole Hydrochloride]
> 70%: inhibition of growth at 300 ppm (Alternaria solani) | inhibition of growth at 300 ppm (Corynespora cassicola)

Cc1ccc(CN2CC[C@H](Oc3ccc(-c4noc(C(F)(F)F)n4)cc3)C2)cc1 [Compound 163, (S)-3-(4-((1-(4-methylbenzyl)pyrrolidin-3-yl)oxy)phenyl)-5-(trifluoromethyl)-1,2,4-oxadiazole]
> 70%: inhibition of growth at 300 ppm (Botrytis cinerea) | inhibition of growth at 300 ppm (Pyricularia oryzae) | inhibition of growth at 300 ppm (Alternaria solani) | inhibition of growth at 300 ppm (Rhizoctonia solani) | inhibition of growth at 300 ppm (Corynespora cassicola)

CC(=O)N1CC[C@@H](Sc2ccc(-c3noc(C(F)(F)F)n3)cc2)C1 [Compound 165, (R)-1-(3-((4-(5-(trifluoromethyl)-1,2,4-oxadiazol-3-yl)phenyl)thio)pyrrolidin-1-yl)ethan-1-one]
> 70%: inhibition of growth at 300 ppm (Botrytis cinerea) | inhibition of growth at 300 ppm (Pyricularia oryzae) | inhibition of growth at 300 ppm (Alternaria solani) | inhibition of growth at 300 ppm (Colletotrichum capsici) | inhibition of growth at 300 ppm (Rhizoctonia solani) | inhibition of growth at 300 ppm (Corynespora cassicola)

FC(F)(F)c1nc(-c2ccc(O[C@H]3CCN(Cc4ccc(Cl)cc4)C3)cc2)no1 [Compound 180, (S)-3-(4-((1-(4-chlorobenzyl)pyrrolidin-3-yl)oxy)phenyl)-5-(trifluoromethyl)-1,2,4-oxadiazole]
> 70%: inhibition of growth at 300 ppm (Botrytis cinerea) | inhibition of growth at 300 ppm (Pyricularia oryzae) | inhibition of growth at 300 ppm (Alternaria solani) | inhibition of growth at 300 ppm (Colletotrichum capsici) | inhibition of growth at 300 ppm (Corynespora cassicola)

O=C(c1cocn1)N1CC[C@H](Oc2ccc(-c3noc(C(F)(F)F)n3)cn2)C1 [Compound 199, (S)-oxazol-4-yl(3-((5-(5-(trifluoromethyl)-1,2,4-oxadiazol-3-yl)pyridin-2-yl)oxy)pyrrolidin-1-yl)methanone]
> 70%: inhibition of growth at 300 ppm (Fusarium culmorum) | inhibition of growth at 300 ppm (Pyricularia oryzae) | inhibition of growth at 300 ppm (Alternaria solani) | inhibition of growth at 300 ppm (Colletotrichum capsici)
